According to ChEMBL document CHEMBL1147101, “Development and persistence of antimicrobial resistance in Pseudomonas aeruginosa: a longitudinal observation in mechanically ventilated patients” (Antimicrob Agents Chemother, 2007):
Active and inactive are the calls of the source. The calls are words filed in the database; no cut-off is given here.

Key:
Type in all cases: functional, organism-based
Settings in all cases: Trachea
Pseudomonas aeruginosa [1] = experiment: Antimicrobial activity against Pseudomonas aeruginosa 1B9 tracheal isolates from mechanically ventilated tuberculosis patient
Pseudomonas aeruginosa [2] = experiment: Antimicrobial activity against Pseudomonas aeruginosa 15G10 tracheal isolates from mechanically ventilated chronic respiratory insufficiency patient
Pseudomonas aeruginosa [3] = experiment: Antimicrobial activity against Pseudomonas aeruginosa 2A5 tracheal isolates from mechanically ventilated tuberculosis patient
Pseudomonas aeruginosa [4] = experiment: Antimicrobial activity against Pseudomonas aeruginosa 2B5 tracheal isolates from mechanically ventilated tuberculosis patient
Pseudomonas aeruginosa [5] = experiment: Antimicrobial activity against Pseudomonas aeruginosa 2A6 tracheal isolates from mechanically ventilated tuberculosis patient
Pseudomonas aeruginosa [6] = experiment: Antimicrobial activity against Pseudomonas aeruginosa 5H6 tracheal isolates from mechanically ventilated chronic respiratory insufficiency patient
Pseudomonas aeruginosa [7] = experiment: Antimicrobial activity against Pseudomonas aeruginosa 65.68-4 tracheal isolates from mechanically ventilated tuberculosis patient
Pseudomonas aeruginosa [8] = experiment: Antimicrobial activity against Pseudomonas aeruginosa 2A5 tracheal isolates from mechanically ventilated chronic respiratory insufficiency patient
Pseudomonas aeruginosa [9] = experiment: Antimicrobial activity against Pseudomonas aeruginosa 13D3 tracheal isolates from mechanically ventilated chronic respiratory insufficiency patient
Pseudomonas aeruginosa [10] = experiment: Antimicrobial activity against Pseudomonas aeruginosa 13D6 tracheal isolates from mechanically ventilated chronic respiratory insufficiency patient
Pseudomonas aeruginosa [11] = experiment: Antimicrobial activity against Pseudomonas aeruginosa 15H5 tracheal isolates from mechanically ventilated chronic respiratory insufficiency patient
Pseudomonas aeruginosa [12] = experiment: Antimicrobial activity against Pseudomonas aeruginosa 16D2 tracheal isolates from mechanically ventilated chronic respiratory insufficiency patient
Pseudomonas aeruginosa [13] = experiment: Antimicrobial activity against Pseudomonas aeruginosa 19B1 tracheal isolates from mechanically ventilated chronic respiratory insufficiency patient
Pseudomonas aeruginosa [14] = experiment: Antimicrobial activity against Pseudomonas aeruginosa 19B3 tracheal isolates from mechanically ventilated chronic respiratory insufficiency patient
Pseudomonas aeruginosa [15] = experiment: Antimicrobial activity against Pseudomonas aeruginosa 19C2 tracheal isolates from mechanically ventilated chronic respiratory insufficiency patient
Pseudomonas aeruginosa [16] = experiment: Antimicrobial activity against Pseudomonas aeruginosa 19C12 tracheal isolates from mechanically ventilated chronic respiratory insufficiency patient
Pseudomonas aeruginosa [17] = experiment: Antimicrobial activity against Pseudomonas aeruginosa 19D10 tracheal isolates from mechanically ventilated chronic respiratory insufficiency patient
Pseudomonas aeruginosa [18] = experiment: Antimicrobial activity against Pseudomonas aeruginosa 8C4 tracheal isolates from mechanically ventilated chronic respiratory insufficiency patient
Pseudomonas aeruginosa [19] = experiment: Antimicrobial activity against Pseudomonas aeruginosa 9A3 tracheal isolates from mechanically ventilated chronic respiratory insufficiency patient
Pseudomonas aeruginosa [20] = experiment: Antimicrobial activity against Pseudomonas aeruginosa 10A9 tracheal isolates from mechanically ventilated chronic respiratory insufficiency patient
Pseudomonas aeruginosa [21] = experiment: Antimicrobial activity against Pseudomonas aeruginosa 29G6 tracheal isolates from mechanically ventilated chronic respiratory insufficiency patient
Pseudomonas aeruginosa [22] = experiment: Antimicrobial activity against Pseudomonas aeruginosa 29G7 tracheal isolates from mechanically ventilated chronic respiratory insufficiency patient
Pseudomonas aeruginosa [23] = experiment: Antimicrobial activity against Pseudomonas aeruginosa 29G8 tracheal isolates from mechanically ventilated chronic respiratory insufficiency patient
Pseudomonas aeruginosa [24] = experiment: Antimicrobial activity against Pseudomonas aeruginosa 19E1 tracheal isolates from mechanically ventilated chronic respiratory insufficiency patient
Pseudomonas aeruginosa [25] = experiment: Antimicrobial activity against Pseudomonas aeruginosa 19E12 tracheal isolates from mechanically ventilated chronic respiratory insufficiency patient
Pseudomonas aeruginosa [26] = experiment: Antimicrobial activity against Pseudomonas aeruginosa 19F1 tracheal isolates from mechanically ventilated chronic respiratory insufficiency patient
Pseudomonas aeruginosa [27] = experiment: Antimicrobial activity against Pseudomonas aeruginosa 19F2 tracheal isolates from mechanically ventilated chronic respiratory insufficiency patient
Pseudomonas aeruginosa [28] = experiment: Antimicrobial activity against Pseudomonas aeruginosa 24D1 tracheal isolates from mechanically ventilated chronic respiratory insufficiency patient
Pseudomonas aeruginosa [29] = experiment: Antimicrobial activity against Pseudomonas aeruginosa 24D5 tracheal isolates from mechanically ventilated chronic respiratory insufficiency patient
Pseudomonas aeruginosa [30] = experiment: Antimicrobial activity against Pseudomonas aeruginosa 24E1 tracheal isolates from mechanically ventilated chronic respiratory insufficiency patient
Pseudomonas aeruginosa [31] = experiment: Antimicrobial activity against Pseudomonas aeruginosa 24E2 tracheal isolates from mechanically ventilated chronic respiratory insufficiency patient
Pseudomonas aeruginosa [32] = experiment: Antimicrobial activity against Pseudomonas aeruginosa 24E6 tracheal isolates from mechanically ventilated chronic respiratory insufficiency patient
Pseudomonas aeruginosa [33] = experiment: Antimicrobial activity against Pseudomonas aeruginosa 23C5 tracheal isolates from mechanically ventilated chronic respiratory insufficiency patient
Pseudomonas aeruginosa [34] = experiment: Antimicrobial activity against Pseudomonas aeruginosa 24F4 tracheal isolates from mechanically ventilated chronic respiratory insufficiency patient
Pseudomonas aeruginosa [35] = experiment: Antimicrobial activity against Pseudomonas aeruginosa 65.18-1 tracheal isolates from mechanically ventilated tuberculosis patient
Pseudomonas aeruginosa [36] = experiment: Antimicrobial activity against Pseudomonas aeruginosa 65.18-2 tracheal isolates from mechanically ventilated tuberculosis patient
Pseudomonas aeruginosa [37] = experiment: Antimicrobial activity against Pseudomonas aeruginosa 65.18-3 tracheal isolates from mechanically ventilated tuberculosis patient
Pseudomonas aeruginosa [38] = experiment: Antimicrobial activity against Pseudomonas aeruginosa 65.18-4 tracheal isolates from mechanically ventilated tuberculosis patient
Pseudomonas aeruginosa [39] = experiment: Antimicrobial activity against Pseudomonas aeruginosa IA5 tracheal isolates from mechanically ventilated tuberculosis patient
Pseudomonas aeruginosa [40] = experiment: Antimicrobial activity against Pseudomonas aeruginosa IC7 tracheal isolates from mechanically ventilated tuberculosis patient
Pseudomonas aeruginosa [41] = experiment: Antimicrobial activity against Pseudomonas aeruginosa 65.33-2 tracheal isolates from mechanically ventilated tuberculosis patient
Pseudomonas aeruginosa [42] = experiment: Antimicrobial activity against Pseudomonas aeruginosa 65.36-2 tracheal isolates from mechanically ventilated tuberculosis patient
Pseudomonas aeruginosa [43] = experiment: Antimicrobial activity against Pseudomonas aeruginosa 65.38-4 tracheal isolates from mechanically ventilated tuberculosis patient
Pseudomonas aeruginosa [44] = experiment: Antimicrobial activity against Pseudomonas aeruginosa 1C9 tracheal isolates from mechanically ventilated tuberculosis patient
Pseudomonas aeruginosa [45] = experiment: Antimicrobial activity against Pseudomonas aeruginosa 2A1 tracheal isolates from mechanically ventilated tuberculosis patient
Pseudomonas aeruginosa [46] = experiment: Antimicrobial activity against Pseudomonas aeruginosa 19C5 tracheal isolates from mechanically ventilated chronic respiratory insufficiency patient
Pseudomonas aeruginosa [47] = experiment: Antimicrobial activity against Pseudomonas aeruginosa 29H1 tracheal isolates from mechanically ventilated chronic respiratory insufficiency patient
Pseudomonas aeruginosa [48] = experiment: Antimicrobial activity against Pseudomonas aeruginosa 65.33-3 tracheal isolates from mechanically ventilated tuberculosis patient
Pseudomonas aeruginosa [49] = experiment: Antimicrobial activity against Pseudomonas aeruginosa 65.38-2 tracheal isolates from mechanically ventilated tuberculosis patient

## CC(C)(O/N=C(\C(=O)N[C@@H]1C(=O)N2C(C(=O)[O-])=C(C[n+]3ccccc3)CS[C@H]12)c1csc(N)n1)C(=O)O
Pseudomonas aeruginosa [1]
  Activity: inactive
Pseudomonas aeruginosa [2]
  Activity: Active
Pseudomonas aeruginosa [3]
  Activity: Active
Pseudomonas aeruginosa [4]
  Activity: Active
Pseudomonas aeruginosa [5]
  Activity: inactive
Pseudomonas aeruginosa [6]
  Activity: Active
Pseudomonas aeruginosa [7]
  Activity: Active
Pseudomonas aeruginosa [8]
  Activity: Active
Pseudomonas aeruginosa [9]
  Activity: Active
Pseudomonas aeruginosa [10]
  Activity: Active
Pseudomonas aeruginosa [11]
  Activity: Active
Pseudomonas aeruginosa [12]
  Activity: Active
Pseudomonas aeruginosa [13]
  Activity: Active
Pseudomonas aeruginosa [14]
  Activity: Active
Pseudomonas aeruginosa [15]
  Activity: Active
Pseudomonas aeruginosa [16]
  Activity: Active
Pseudomonas aeruginosa [17]
  Activity: Active
Pseudomonas aeruginosa [18]
  Activity: Active
Pseudomonas aeruginosa [19]
  Activity: Active
Pseudomonas aeruginosa [20]
  Activity: Active
Pseudomonas aeruginosa [21]
  Activity: Active
Pseudomonas aeruginosa [22]
  Activity: Active
Pseudomonas aeruginosa [23]
  Activity: Active
Pseudomonas aeruginosa [24]
  Activity: Active
Pseudomonas aeruginosa [25]
  Activity: Active
Pseudomonas aeruginosa [26]
  Antimicrobial activity: Active
Pseudomonas aeruginosa [27]
  Activity: Active
Pseudomonas aeruginosa [28]
  Activity: Active
Pseudomonas aeruginosa [29]
  Activity: Active
Pseudomonas aeruginosa [30]
  Activity: Active
Pseudomonas aeruginosa [31]
  Activity: Active
Pseudomonas aeruginosa [32]
  Activity: Active
Pseudomonas aeruginosa [33]
  Activity: Active
Pseudomonas aeruginosa [34]
  Activity: Active
Pseudomonas aeruginosa [35]
  Activity: Active
Pseudomonas aeruginosa [36]
  Activity: Active
Pseudomonas aeruginosa [37]
  Activity: Active
Pseudomonas aeruginosa [38]
  Activity: Active
Pseudomonas aeruginosa [39]
  Activity: Active
Pseudomonas aeruginosa [40]
  Activity: Active
Pseudomonas aeruginosa [41]
  Activity: Active
Pseudomonas aeruginosa [42]
  Activity: Active

## O=C(O)c1cn(C2CC2)c2cc(N3CCNCC3)c(F)cc2c1=O
Pseudomonas aeruginosa [43]
  Activity: Active
Pseudomonas aeruginosa [1]
  Activity: Active
Pseudomonas aeruginosa [44]
  Activity: Active
Pseudomonas aeruginosa [45]
  Activity: Active
Pseudomonas aeruginosa [3]
  Activity: Active
Pseudomonas aeruginosa [4]
  Activity: Active
Pseudomonas aeruginosa [5]
  Activity: Active
Pseudomonas aeruginosa [6]
  Activity: Active
Pseudomonas aeruginosa [7]
  Activity: Active
Pseudomonas aeruginosa [8]
  Activity: Active
Pseudomonas aeruginosa [11]
  Activity: Active
Pseudomonas aeruginosa [14]
  Activity: Active
Pseudomonas aeruginosa [46]
  Activity: Active
Pseudomonas aeruginosa [18]
  Activity: Active
Pseudomonas aeruginosa [19]
  Activity: Active
Pseudomonas aeruginosa [20]
  Activity: Active
Pseudomonas aeruginosa [21]
  Activity: Active
Pseudomonas aeruginosa [22]
  Activity: Active
Pseudomonas aeruginosa [23]
  Activity: Active
Pseudomonas aeruginosa [47]
  Activity: inactive
Pseudomonas aeruginosa [28]
  Activity: Active
Pseudomonas aeruginosa [34]
  Activity: Active
Pseudomonas aeruginosa [35]
  Activity: Active
Pseudomonas aeruginosa [36]
  Activity: Active
Pseudomonas aeruginosa [37]
  Activity: Active
Pseudomonas aeruginosa [38]
  Activity: Active
Pseudomonas aeruginosa [39]
  Activity: Active
Pseudomonas aeruginosa [40]
  Activity: Active
Pseudomonas aeruginosa [41]
  Activity: Active
Pseudomonas aeruginosa [48]
  Activity: Active
Pseudomonas aeruginosa [42]
  Activity: Active
Pseudomonas aeruginosa [49]
  Activity: Active

## CO/N=C(\C(=O)N[C@@H]1C(=O)N2C(C(=O)[O-])=C(C[N+]3(C)CCCC3)CS[C@H]12)c1csc(N)n1
Pseudomonas aeruginosa [43]
  Activity: Active
Pseudomonas aeruginosa [1]
  Activity: inactive
Pseudomonas aeruginosa [44]
  Activity: Active
Pseudomonas aeruginosa [2]
  Activity: Active
Pseudomonas aeruginosa [45]
  Activity: Active
Pseudomonas aeruginosa [3]
  Activity: Active
Pseudomonas aeruginosa [4]
  Activity: Active
Pseudomonas aeruginosa [6]
  Activity: Active
Pseudomonas aeruginosa [7]
  Activity: Active
Pseudomonas aeruginosa [8]
  Activity: Active
Pseudomonas aeruginosa [9]
  Activity: Active
Pseudomonas aeruginosa [10]
  Activity: Active
Pseudomonas aeruginosa [11]
  Activity: Active
Pseudomonas aeruginosa [12]
  Activity: Active
Pseudomonas aeruginosa [13]
  Activity: Active
Pseudomonas aeruginosa [14]
  Activity: Active
Pseudomonas aeruginosa [46]
  Activity: Active
Pseudomonas aeruginosa [16]
  Activity: Active
Pseudomonas aeruginosa [17]
  Activity: Active
Pseudomonas aeruginosa [18]
  Activity: Active
Pseudomonas aeruginosa [19]
  Activity: Active
Pseudomonas aeruginosa [20]
  Activity: Active
Pseudomonas aeruginosa [21]
  Activity: Active
Pseudomonas aeruginosa [22]
  Activity: Active
Pseudomonas aeruginosa [23]
  Activity: Active
Pseudomonas aeruginosa [47]
  Activity: inactive
Pseudomonas aeruginosa [24]
  Activity: Active
Pseudomonas aeruginosa [25]
  Activity: Active
Pseudomonas aeruginosa [26]
  Antimicrobial activity: Active
Pseudomonas aeruginosa [27]
  Activity: Active
Pseudomonas aeruginosa [28]
  Activity: Active
Pseudomonas aeruginosa [30]
  Activity: Active
Pseudomonas aeruginosa [31]
  Activity: Active
Pseudomonas aeruginosa [32]
  Activity: Active
Pseudomonas aeruginosa [33]
  Activity: Active
Pseudomonas aeruginosa [35]
  Activity: Active
Pseudomonas aeruginosa [36]
  Activity: Active
Pseudomonas aeruginosa [37]
  Activity: Active
Pseudomonas aeruginosa [38]
  Activity: Active
Pseudomonas aeruginosa [39]
  Activity: Active
Pseudomonas aeruginosa [40]
  Activity: Active
Pseudomonas aeruginosa [41]
  Activity: Active
Pseudomonas aeruginosa [42]
  Activity: Active
